This note sets out measurements from ChEMBL document CHEMBL2150932, “Structure-activity relationships and molecular modeling of 1,2,4-triazoles as adenosine receptor antagonists” (ACS Med Chem Lett, 2012).

What is called inhibition is the relative decrease from the control value, in per cent. As usually defined, the Ki is a measure of affinity in units of concentration, obtained from inhibition or displacement. Lower therefore signals a stronger hold on the target.

Test [1] concerns the target T1, Adenosine receptor A2b (Homo sapiens) (UniProt P29275).
T1 sequence (whole entry): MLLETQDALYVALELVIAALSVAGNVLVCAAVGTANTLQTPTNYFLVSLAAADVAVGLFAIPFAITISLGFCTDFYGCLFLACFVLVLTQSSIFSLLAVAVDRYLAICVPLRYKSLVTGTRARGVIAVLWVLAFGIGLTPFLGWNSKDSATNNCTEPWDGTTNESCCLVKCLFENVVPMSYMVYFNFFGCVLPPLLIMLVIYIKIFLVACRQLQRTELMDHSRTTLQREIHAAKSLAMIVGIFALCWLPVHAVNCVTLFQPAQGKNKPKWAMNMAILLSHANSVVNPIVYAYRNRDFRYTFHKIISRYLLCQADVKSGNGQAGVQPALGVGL
As to the kind of experiment: Antagonist activity at human A2B adenosine receptor expressed in CHO cells assessed as inhibition of NECA-induced cAMP accumulation at 10 uM after 20 mins. Format: functional, cell-based. In general terms: Changes in cAMP serve as a functional read-out for many G protein-coupled receptors.

For test [2], the target named is T2, Adenosine receptor A1 (Homo sapiens) (UniProt P30542).
T2 sequence (whole entry): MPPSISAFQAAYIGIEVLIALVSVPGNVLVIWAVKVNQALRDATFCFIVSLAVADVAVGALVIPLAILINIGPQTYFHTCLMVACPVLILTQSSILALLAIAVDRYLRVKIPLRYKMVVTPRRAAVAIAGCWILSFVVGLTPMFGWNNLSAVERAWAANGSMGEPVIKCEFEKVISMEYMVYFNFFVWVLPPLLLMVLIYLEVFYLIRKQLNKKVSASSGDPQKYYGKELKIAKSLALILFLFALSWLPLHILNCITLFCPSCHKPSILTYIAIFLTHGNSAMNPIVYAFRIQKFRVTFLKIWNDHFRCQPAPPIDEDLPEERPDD
Description: Inhibition of human A1 adenosine receptor expressed in CHO cells at 10 uM after 60 mins by liquid scintillation counting. The test is classed as cell-based.

The target in another test is T3, Adenosine receptor A3 (Homo sapiens, UniProt P0DMS8).
T3 sequence (P0DMS8 whole entry): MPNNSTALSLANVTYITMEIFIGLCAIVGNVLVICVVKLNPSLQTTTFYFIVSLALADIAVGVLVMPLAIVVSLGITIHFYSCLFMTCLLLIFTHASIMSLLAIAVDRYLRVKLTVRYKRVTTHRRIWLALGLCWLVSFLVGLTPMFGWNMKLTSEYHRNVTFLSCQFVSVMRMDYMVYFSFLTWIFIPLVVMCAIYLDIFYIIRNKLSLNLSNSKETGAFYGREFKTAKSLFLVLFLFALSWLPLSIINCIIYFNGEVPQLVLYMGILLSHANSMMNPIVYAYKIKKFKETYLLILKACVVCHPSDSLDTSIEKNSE
As to the kind of experiment: Displacement of […] from human A3 adenosine receptor expressed in CHO cells after 60 mins by liquid scintillation counting. The test is classed as cell-based. (In general: Displacement assays read how much labelled ligand stays bound in the presence of the test substance.)

In test [3] the target is T4, Adenosine receptor A2a (Homo sapiens, UniProt P29274). Description: Displacement of [3H]CGS21680 from human A2A adenosine receptor expressed in HEK293 cells after 60 mins by liquid scintillation counting. Format: cell-based.
For another test, the target named is T5, Adenosine receptor A1 (Homo sapiens, UniProt P30542).
T5 sequence (P30542 whole entry): T2 sequence (whole entry)
As to the kind of experiment: Inhibition of human A1 adenosine receptor expressed in CHO cells after 60 mins by liquid scintillation counting. The test is classed as cell-based.

Test [4] addresses T4, Adenosine receptor A2a. Description: Displacement of [3H]CGS21680 from human A2A adenosine receptor expressed in HEK293 cells at 10 uM after 60 mins by liquid scintillation counting. The test is classed as cell-based.
The target of test [5] is T6, Adenosine receptor A3 (Homo sapiens) (UniProt P0DMS8).
T6 sequence (whole entry): T3 sequence (P0DMS8 whole entry)
Description: Displacement of […] from human A3 adenosine receptor expressed in CHO cells at 10 uM after 60 mins by liquid scintillation counting. Format: cell-based.

T4 sequence (P29274 whole entry): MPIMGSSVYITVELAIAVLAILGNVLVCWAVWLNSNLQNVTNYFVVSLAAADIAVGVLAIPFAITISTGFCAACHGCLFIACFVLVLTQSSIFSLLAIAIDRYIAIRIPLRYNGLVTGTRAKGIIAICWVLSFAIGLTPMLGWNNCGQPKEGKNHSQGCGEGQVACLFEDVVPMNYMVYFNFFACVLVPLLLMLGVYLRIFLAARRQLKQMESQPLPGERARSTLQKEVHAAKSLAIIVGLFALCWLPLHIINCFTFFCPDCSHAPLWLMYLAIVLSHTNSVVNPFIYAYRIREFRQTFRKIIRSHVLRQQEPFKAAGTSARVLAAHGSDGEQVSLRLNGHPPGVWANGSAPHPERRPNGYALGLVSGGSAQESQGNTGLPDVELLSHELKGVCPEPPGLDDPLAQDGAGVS

Take `Cc1cccc(O[C@H](C)C(=O)Nc2nc(-c3ccccc3)n[nH]2)c1`: the inhibition in test [1] stood at 18%.
On to `O=C(Nc1nc(-c2ccccc2)n[nH]1)c1ccc(Cl)cc1`, for which the results for the inhibition in test [2] and in test [1] were 31% and -2%, respectively.
In turn, `COc1ccccc1OCC(=O)Nc1nnc(-c2ccc(C)cc2)[nH]1` displayed an inhibitory constant (Ki) at Adenosine receptor A3 of 1 µM.
On to `O=C(COc1ccccc1)Nc1nnc(-c2ccccc2)[nH]1`, for which the Ki worked out at 1.8 µM at Adenosine receptor A2a [3] and 2.3 µM at Adenosine receptor A3.
As for `O=C(Nc1nnc(-c2ccccc2)[nH]1)c1ccccc1`, the values for the Ki at Adenosine receptor A2a [3], at Adenosine receptor A3 and at Adenosine receptor A1 were 0.4 µM, 0.3 µM and 1.9 µM, respectively.
Take `CC(C)(Oc1ccc(Cl)cc1)C(=O)Nc1nc(-c2ccccc2)n[nH]1`: the inhibition in test [2] was determined as 41%; in test [1] it was 6%.
Consider `COc1ccccc1OCC(=O)Nc1nc(-c2ccc(C)cc2)n[nH]1`, for which the inhibition in test [2] was 8%; on Adenosine receptor A2a [4], 49%; in test [1], -10%.
On to `Cc1cccc(-c2n[nH]c(NC(=O)[C@H](C)Oc3ccccc3)n2)c1`, for which the figures for the inhibition (in test [2]; in test [5]; at Adenosine receptor A2a [4]) were 13%, 32% and 23%, respectively.
On to `CC[C@@H](Oc1ccccc1)C(=O)Nc1nc(-c2ccccc2)n[nH]1`, for which the values for the Ki on Adenosine receptor A2a [3], on Adenosine receptor A3 and on Adenosine receptor A1 were 1.4 µM, 1.9 µM and 1.5 µM, respectively. The inhibition in test [1] was -9%.
As to `Cc1cc(C)cc(OCC(=O)Nc2nc(-c3ccccc3)n[nH]2)c1`, the inhibition in test [1] is -5%.
Turning to `C[C@@H](Sc1ccccc1)C(=O)Nc1nnc(-c2ccccc2)[nH]1`, the Ki is 2.2 µM on Adenosine receptor A2a [3], 1.9 µM at Adenosine receptor A3 and 3.3 µM at Adenosine receptor A1.
In the case of `C[C@@H](Oc1cccc(Cl)c1)C(=O)Nc1nc(-c2ccccc2)n[nH]1`, in test [1], the inhibition is 28%.
Consider `CCCC(=O)Nc1nnc(-c2ccccc2)[nH]1`, for which the Ki at Adenosine receptor A2a [3] came to 1.1 µM; on Adenosine receptor A3, 0.2 µM; at Adenosine receptor A1, 0.8 µM.
For `C[C@@H](Oc1ccccc1)C(=O)Nc1nc(-c2ccccc2)n[nH]1`, the Ki at Adenosine receptor A2a [3] amounted to 1 µM; on Adenosine receptor A3, 3.3 µM; at Adenosine receptor A1 it was 5.2 µM. Further, the inhibition in test [1] was determined as 23%.
For `O=C(Nc1nc(-c2ccccc2)n[nH]1)C1CCCO1` (centres undefined), the Ki at Adenosine receptor A2a [3] was determined as 5.9 µM; on Adenosine receptor A3, 3.1 µM; on Adenosine receptor A1 it was 3.2 µM. The inhibition in test [1] is -7%.
On to `O=C(COc1ccc2c(c1)CCC2)Nc1nc(-c2ccccc2)n[nH]1`, for which the results for the inhibition in test [2] and in test [1] were 46% and 9%, respectively. The Ki on Adenosine receptor A2a [3] was 3.9 µM; at Adenosine receptor A3, 2.2 µM.
On to `O=C(COc1ccccc1)Nc1nc(-c2ccccc2)n[nH]1`, for which the inhibition worked out at 20% in test [2] and 16% in test [1].
As to `C[C@@H](Oc1ccccc1F)C(=O)Nc1nnc(-c2ccccc2)[nH]1`, the results for the Ki at Adenosine receptor A2a [3], at Adenosine receptor A3 and at Adenosine receptor A1 were 1 µM, 2.6 µM and 3.7 µM, respectively.
For `COc1ccccc1C(=O)Nc1nc(-c2ccccc2)n[nH]1`, the Ki at Adenosine receptor A2a [3] came to 0.2 µM; on Adenosine receptor A3, 0.6 µM; on Adenosine receptor A1, 0.5 µM. The inhibition in test [1] was found to be 16%.
Take `Cc1ccccc1OCC(=O)Nc1nc(-c2ccccc2)n[nH]1`: the inhibition in test [2] was determined as 16%; in test [1], 13%.
Turning to `COc1ccc(CC(=O)Nc2nc(-c3ccccc3)n[nH]2)cc1`, the inhibition in test [2] was 29%; in test [1] it was -6%.
Turning to `C[C@@H](Sc1ccccc1)C(=O)Nc1nc(-c2ccccc2)n[nH]1`, the inhibition in test [1] stood at 21%.
Take `Cc1ccc(O[C@H](C)C(=O)Nc2nc(-c3ccccc3)n[nH]2)cc1`: the inhibition in test [2] is 38%; in test [1], -6%. For the same compound, the Ki on Adenosine receptor A2a [3] stood at 6.4 µM; at Adenosine receptor A3 it was 1.4 µM.
`COc1ccccc1NC(=O)Nc1nnc(-c2ccccc2)[nH]1`: the results for the Ki on Adenosine receptor A2a [3] and at Adenosine receptor A3 were 0.2 µM and 0.3 µM, respectively.
Regarding `CCC(=O)Nc1nc(-c2ccccc2)n[nH]1`, the figures for the inhibition in test [2] and in test [1] were 39% and 8%, respectively. Moreover, the inhibition constant Ki was 2.5 µM on Adenosine receptor A2a [3] and 0.3 µM at Adenosine receptor A3.
Turning to `Cc1cccc(OCC(=O)Nc2nc(-c3ccccc3)n[nH]2)c1`, the Ki at Adenosine receptor A2a [3] is 2 µM; at Adenosine receptor A3, 1.5 µM; on Adenosine receptor A1, 2.3 µM. The inhibition in test [1] was 8%.
On to `CCCC(=O)Nc1nc(-c2ccccc2)n[nH]1`, for which the inhibition in test [1] was found to be 5%.
Still for that read-out and setting: then `C[C@@H](Oc1ccccc1F)C(=O)Nc1nc(-c2ccccc2)n[nH]1`, with 31%.
Still for that read-out and setting: then `O=C(Nc1nc(-c2ccccc2)n[nH]1)c1ccccc1`, with 72%.
In the case of `Cc1ccc(O[C@H](C)C(=O)Nc2nc(-c3ccco3)n[nH]2)cc1`, the inhibition in test [2] was 37%; at Adenosine receptor A2a [4], 38%. The compound also returned a Ki at Adenosine receptor A3 of 5.3 µM.
As to `CC(=O)Nc1nc(-c2ccccc2)n[nH]1`, the inhibition in test [2] was 18%; on Adenosine receptor A2a [4], 43%; in test [1], 10%.
Regarding `Cc1ccc(C(=O)Nc2nc(-c3ccccc3)n[nH]2)cc1`, the values for the Ki at Adenosine receptor A2a [3], at Adenosine receptor A3 and at Adenosine receptor A1 were 0.3 µM, 0.1 µM and 1.3 µM, respectively. In addition, in test [1], the inhibition was 29%.
For `Cc1cccc(-c2n[nH]c(NC(=O)C(C)Oc3ccccc3)n2)c1` (centres undefined), the inhibition came to 8% in test [2] and 5% in test [1].
As for `Cc1cccc(-c2nnc(NC(=O)C(C)Oc3ccccc3)[nH]2)c1` (centres undefined), the Ki at Adenosine receptor A2a [3] turned out to be 2 µM; at Adenosine receptor A3 it was 5.9 µM.
For the compound `C[C@@H](Oc1ccc(Cl)cc1)C(=O)Nc1nc(-c2ccccc2)n[nH]1`, the Ki on Adenosine receptor A2a [3] was 4 µM; on Adenosine receptor A3, 2.5 µM; on Adenosine receptor A1, 3.9 µM. In addition, the inhibition in test [1] is 51%.
As to `Cc1cccc(O[C@H](C)C(=O)Nc2nnc(-c3ccccc3)[nH]2)c1`, the Ki at Adenosine receptor A2a [3] was 1.2 µM.
For `Cc1cc(C)cc(OCC(=O)Nc2nnc(-c3ccccc3)[nH]2)c1`, the Ki amounted to 3.2 µM on Adenosine receptor A2a [3], 2.7 µM at Adenosine receptor A3 and 1.6 µM at Adenosine receptor A1.
At Adenosine receptor A3, `CC(=O)Nc1nnc(-c2ccccc2)[nH]1` showed a Ki of 0.3 µM.
Turning to `COc1ccccc1NC(=O)Nc1nc(-c2ccccc2)n[nH]1`, the figures for the inhibition in test [2] and in test [1] were 22% and 10%, respectively.
In the case of `C[C@@H](Oc1cccc(Cl)c1)C(=O)Nc1nnc(-c2ccccc2)[nH]1`, the values for the Ki at Adenosine receptor A2a [3], at Adenosine receptor A3 and on Adenosine receptor A1 were 1 µM, 2.6 µM and 1.1 µM, respectively.
Consider `O=C(Nc1nnc(-c2ccccc2)[nH]1)c1ccc(Cl)cc1`, for which the Ki at Adenosine receptor A2a [3] worked out at 2.8 µM; at Adenosine receptor A3, 0.2 µM.
Taken in the same sequence, the figures for `Cc1ccccc1OCC(=O)Nc1nnc(-c2ccccc2)[nH]1` were 1.7 µM and 1 µM.
On to `O=C(CCc1ccccc1)Nc1nc(-c2ccccc2)n[nH]1`, for which the inhibition in test [2] and in test [1] was 40% each time. Moreover, the results for the Ki at Adenosine receptor A2a [3] and at Adenosine receptor A3 were 3.4 µM and 8.3 µM, respectively.
With `O=C(COCc1ccccc1)Nc1nc(-c2ccccc2)n[nH]1`, the figures for the Ki on Adenosine receptor A2a [3], on Adenosine receptor A3 and at Adenosine receptor A1 were 5 µM, 4.6 µM and 8.1 µM, respectively. The inhibition in test [1] stood at 7%.
For `CC(C)(Oc1ccc(Cl)cc1)C(=O)Nc1nnc(-c2ccccc2)[nH]1`, the Ki on Adenosine receptor A2a [3] amounted to 8.8 µM; at Adenosine receptor A3, 0.5 µM.
Consider `Cc1ccc(-c2nnc(NC(=O)COc3ccccc3)[nH]2)cc1`, for which the Ki at Adenosine receptor A2a [3] is 3.6 µM; on Adenosine receptor A3, 3.2 µM; at Adenosine receptor A1 it was 6.5 µM.
With `Cc1cccc(-c2n[nH]c(NC(=O)[C@@H](C)Oc3ccccc3)n2)c1`, the inhibition in test [2] was found to be 12%. For the same compound, the Ki was 1.8 µM at Adenosine receptor A2a [3] and 6.3 µM on Adenosine receptor A3.
With `Cc1ccc(-c2n[nH]c(NC(=O)COc3ccccc3)n2)cc1`, the inhibition in test [1] is 23%.
For the compound `O=C(COc1ccccc1)Nc1nc(-c2ccc(F)cc2)n[nH]1`, the inhibition in test [2] was 2%; in test [1], -10%. The Ki was 3.5 µM at Adenosine receptor A2a [3] and 1.5 µM at Adenosine receptor A3.
Taken in the same sequence, the figures for `Cc1cccc(C)c1OCC(=O)Nc1nc(-c2ccccc2)n[nH]1` were 49%, 43%, 1.7 µM and 5.5 µM.
